Assay results taken from US11608313B2, “Adamantylmethylamine derivative and use thereof as pharmaceutical” (TOHOKU UNIVERSITY, priority 2017, dated 2023).

Tests used:
Assay type in all cases: in vivo
APP23 mice = assay: Y-maze test in APP23 mice; conditions: 1 mg/kg orally once a day for two months
Method: FIGS. 4-1 to 4-4 show the results of behavioral analyses. FIGS. 4-1 and 4-2 show the results of analysis of attentional function in wild-type mice (C57BL/6J, Japan SLC) v.s. APP23 mice (n=5 per group) by conventional Y-maze test. […] In the Y-maze test, mice are allowed to freely walk between three arms for 8 minutes. Here, the different arms are designated as A, B and C. A mouse positioned in arm A can move to arm B or C. If the mouse moves to arm B, then the mouse may move to arm C. Such a mouse moving sequentially between arms A, B and C is regarded as a mouse giving correct answer. […] The arms to which a mouse move are recorded in the order they are chosen by the mouse, and the number of times that a mouse moves between three arms within a specified time is counted and regarded as “total arm entries”. Further, the number of correct-answers (the number of times that a mouse moving sequentially between three different arms) is counted and regarded as the number of alternation behaviors (“No. of alternations”). The percentage of “No. of alternations” relative to the number obtained by subtracting 2 from “total arm entries” is expressed as percent alternation (%) which serves as an index for normal alternation behavior (correct answer rate in spatial working memory). […]

[1] = tested on: Kir6.1-deficient mice (heterozygous); assay: Tail-suspension test and forced swim test in Kir6.1-deficient mice; conditions: chronic oral treatment for 2 weeks, 1 mg/kg
Excerpt: Kir6.1-deficient mice (heterozygous, n=5 per group) were used to measure immobility time by tail-suspension test (FIG. 12-1) and forced swim test (FIG. 12-2) according to the same procedure as in Test Example 11. The heterozygous mice are those with half expression of Kir6.1 channels, unlike homozygous mice (complete Kir6.1-deficient mice) (homozygous mice die of arrhythmia after birth). […] The Kir6.1-deficient mice were obtained from Professor Susumu Seino, School of Medicine of Kobe University (Mild T., et al., Nature Medicine, 2002, 8, 466-472).

CaMKIV-deficient mice = assay: Tail-suspension test and forced swim test in CaMKIV-deficient mice; conditions: chronic oral treatment for 2 weeks, 1 mg/kg
Method: By following the same procedure as in Test Example 12, CaMKIV-deficient mice (n=5*per group) were analyzed for CaMKIV induced by Kir6.1 channels.
The CaMKIV-deficient mice were obtained from professor Hiroyuki Sakagami, Kitasato University School of Medicine (Takao K., et al., PLoS One 2010, 5, e9460).

amyloid-β (Aβ) = assay: Aβ aggregation in brain slices of APP23 mice (6E10 and thioflavin staining); conditions: APP23 mice 14 month-old, chronic oral treatment for 2 months, 1 mg/kg
Method: The amyloid-β (Aβ) hypothesis regarding the pathogenesis of Alzheimer's disease has still been of great importance. It has been confirmed by immunostaining that Aβ aggregation occurs in APP23 mice (14 month-old). 50 μm brain slices were prepared from each of WT (control) and APP23 mice, and stained with 6E10 (anti-Aβ antibody, produced by Abcam) and thioflavin. The other conditions were in line with conventional immunostaining methods. […] Aβ aggregation was suppressed by chronic treatment with TP-014 (chronic oral treatment for 2 months (1 mg/kg)).

OBX mice = assay: Tail-suspension test and forced swim test in OBX mice (depression model); conditions: chronic oral treatment for 2 weeks, 1 mg/kg
Method: OBX mice were used as a depression model to determine the effect of TP-014 (chronic oral treatment for 2 weeks (1 mg/kg)) to ameliorate a depression-like symptom. OBX mice are reported to show a decline in cognitive function, but have originally been established as a depression model. Depression analysis was done by tail-suspension test and forced swim test. In the tail-suspension test, mice are hung upside-down by their tail. If the hung mice are affected by depression, they show a longer immobility time. The immobility time of normal mice is shorter since they move actively when hung. In the forced swim test, mice are forced to swim in a beaker filled with water. Depression mice neither swim nor move (just float). The time (immobility time(s)) for which mice stay still in such a way is measured.
The same model mice were orally treated with a single dose of each of the test compounds (1 mg/kg), and analyzed after 1 hour by tail-suspension test and forced swim test. The results are shown in FIGS. 22-1 (tail-suspension test) and 22-2 (forced swim test).

O=C(N[C@@H](c1ccccc1)[C@H]1[C@H]2C[C@@H]3C[C@](Cl)(C2)C[C@@]1(OC(=O)C(F)(F)F)C3)C(F)(F)F [TP-014, (1S,2R,3S,5S,7S)-5-chloro-2-((R)-phenyl(2,2,2-trifluoroacetamido)methyl)adamantan-1-yl 2,2,2-trifluoroacetate]
attentional function (Y-maze test, percent alternation) (APP23 mice): significantly enhanced
depression-like symptom (immobility time) [1]: no effect
depression-like symptom (increased immobility time) (CaMKIV-deficient mice): no effect
Aβ aggregation (amyloid-β (Aβ)): suppressed
immobility time (tail-suspension test and forced swim test) (OBX mice): improved
